These results are taken from the supplement of paper PMC5579334.

For experiment [1], the system named is S1507-2. In words: drug sensitivity score (DSS, CellTiter-Glo viability, 72 h) (DSS (dimensionless)); higher = more sensitive; extreme values may be limits of the assay. A digest of the protocol:
(§1)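 MPNST cell lines and primary human Schwann cells were seeded at 750–1000 cells per well into 384-well plates preprinted with each compound at five concentrations in 10-fold steps, then incubated 72 h at 37 °C, 5% CO2. CellTiter-Glo ATP luminescence gave viability, scaled between vehicle and positive-control wells, with duplicates averaged where present. Curves were fitted with a four-parameter logistic model. Percent inhibition refers to the top concentration, while drug sensitivity score and relative IC50, censored at the top concentration, come from these fits.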
(In ATP-based viability assays light output follows the ATP content of the culture.)

Experiment [2] relates to HS-Sch-2. Described as above. Summed up: as §1
For experiment [3], the system named is STS26T. The experiment is described as above. A digest of the protocol:
as §1

The test system of experiment [4] is YST-1. The experiment is described as above. Summed up: as §1
The subject of experiment [5] is ST8814. Described as above. A digest of the protocol:
as §1

Experiment [6] deals with HSC1 (primary human Schwann cells). The description is as above. A digest of the protocol:
as §1

Experiment [7] relates to HSC2 (primary human Schwann cells). Described as above. A digest of the protocol: as §1
The subject of experiment [8] is S462. Described as above. A digest of the protocol:
as §1

Experiment [9] relates to HS-PSS. The experiment is described as above. Summed up:
as §1

Experiment [10] concerns S1507-2. In words: % inhibition of CellTiter-Glo viability at highest tested concentration (72 h), relative to DMSO and benzethonium chloride controls; higher = more inhibition. Summed up: as §1
Experiment [11] deals with HS-Sch-2. The description is as above. Summed up:
as §1

Experiment [12] has as its system STS26T. The description is as above. A digest of the protocol:
as §1

The test system of experiment [13] is YST-1. The experiment is described as above. A digest of the protocol: as §1
For experiment [14], the system named is ST8814. The description is as above. A digest of the protocol: as §1
The test system of experiment [15] is HSC1 (primary human Schwann cells). Described as above. A digest of the protocol: as §1
Experiment [16] has as its system HSC2 (primary human Schwann cells). Described as above. A digest of the protocol:
as §1

The test system of experiment [17] is S462. The experiment is described as above. Summed up: as §1
For experiment [18], the system named is HS-PSS. The description is as above. A digest of the protocol: as §1
The test system of experiment [19] is S1507-2. The experiment in a line: drug sensitivity score (DSS, CellTox-Green cytotoxicity, 72 h) (DSS (dimensionless)); higher = more cytotoxic; extreme values may be limits of the assay. Summed up:
(§2)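 For 72 h at 37 °C, MPNST cell lines and primary human Schwann cells were exposed in 384-well plates to five 10-fold compound dilutions. CellTox-Green, added before seeding at a final 1:1000 dilution, gave fluorescence from DNA released by disrupted cells. Signals were scaled to vehicle and positive-control wells, cultures failing plate quality control were left out, and four-parameter logistic fits were applied. Relative IC50 and drug sensitivity score were derived from the fits, with IC50 censored at the top concentration.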

In experiment [20] the test system is STS26T. Described as above. Summed up: as §2
The subject of experiment [21] is ST8814. The experiment is described as above. A digest of the protocol: as §2
Experiment [22] deals with HSC1 (primary human Schwann cells). The experiment is described as above. A digest of the protocol: as §2
Experiment [23] deals with HSC2 (primary human Schwann cells). Described as above. Summed up:
as §2

Experiment [24] deals with HS-PSS. The description is as above. Summed up:
as §2

± gives the standard deviation of the averaged measurements.

Usually % inhibition stands for the change of the read-out against control, counted positive when it falls. Take `COc1cc2c(Oc3ccc(NC(=O)C4(C(=O)Nc5ccc(F)cc5)CC4)cc3F)ccnc2cc1OCCCN1CCOCC1` [Foretinib] (max concentration tested 1000 nM): the drug sensitivity score in experiment [1] amounted to 5.7 ± 0.45; in experiment [2], 1.15; in experiment [3], 3.62; in [4], 3.16; in [5], 6.43; in experiment [6] it was 3.91. For the same compound, the drug sensitivity score in [7] stood at 3.44; in experiment [8], 3.22 ± 0.43; in [9] it was 1.41; in experiment [19], 1.26 ± 0.61; in experiment [20], 4.03; in experiment [21], 2.96. Besides, the drug sensitivity score in [22] was 0; in [23] it was 0; in experiment [24] it was 0.08. For the same compound, the “% inhibition” value in experiment [10] came to 58.7 ± 5.1%; in [11] it was 31.7%; in experiment [12] it was 48.4%; in experiment [13], 52.2%; in experiment [14] it was 67.5%; in experiment [15] it was 56.5%. The “% inhibition” value is 53.2% in experiment [16], 50.2 ± 3% in experiment [17] and 20.9% in experiment [18].
For the compound `C[C@]12CC[C@@H]3c4ccc(O)cc4C[C@@H](CCCCCCCCC[S+]([O-])CCCC(F)(F)C(F)(F)F)[C@H]3[C@@H]1CC[C@@H]2O` (some centres undefined) [Fulvestrant] (max concentration tested 1000 nM), the drug sensitivity score in [1] was 0; in experiment [2] it was 0; in experiment [3], 0; in experiment [4], 0; in experiment [5], 0; in [6], 0.178. In addition, the drug sensitivity score in [7] was found to be 0.538; in experiment [8], 0; in experiment [9], 0; in [19], 1.33 ± 1.9; in experiment [20], 0; in [21], 0. Also, the drug sensitivity score in experiment [22], in experiment [23] and in [24] was 0 in each case. In addition, the “% inhibition” value in [10] was -11.9 ± 2.2%; in experiment [11], 8.02%; in experiment [12], 4.69%; in experiment [13], 1.11%; in experiment [14], -2.59%; in [15] it was 11.4%. For the same compound, the “% inhibition” value was 18.2% in [16], 6.51 ± 4.8% in experiment [17] and 10.3% in experiment [18].
As for `CCCc1cc(C)[nH]c(=O)c1CNC(=O)c1cc(-c2ccnc(N3CCN(C)CC3)c2)cc2c1cnn2C(C)C` [GSK343] (max concentration tested 10000 nM), the drug sensitivity score was 5.498 ± 0.026 in [1]; 4.46 in experiment [2]; 3.88 in experiment [3]; 1.05 in experiment [4]; 5.22 in experiment [5]; 4.34 in [6]. The drug sensitivity score in experiment [7] stood at 2.64; in experiment [8], 2.58 ± 1.2; in experiment [9], 5.59; in experiment [19], 6.1 ± 1.5; in experiment [20], 6.48; in experiment [21], 5.69. In addition, the drug sensitivity score in [22] came to 0; in experiment [23] it was 0; in [24], 5.71. Besides, the “% inhibition” value in experiment [10] was found to be 86 ± 10%; in experiment [11] it was 95.9%; in experiment [12], 84.1%; in experiment [13], 33.9%; in experiment [14], 94.4%; in experiment [15], 47%. The “% inhibition” value in [16] was 34.4%; in experiment [17] it was 49.6 ± 14%; in experiment [18], 94.3%.
`CCOC(=O)CCNc1cc(N2CCc3ccccc3CC2)nc(-c2ccccn2)n1` [GSK-J4] (max concentration tested 100000 nM): the drug sensitivity score in experiment [1] was determined as 13.4 ± 0.92; in experiment [2], 15.9; in experiment [3], 14.6; in experiment [4], 16.3; in experiment [5], 14.1; in [6] it was 14.8. The drug sensitivity score came out at 15.2 in experiment [7]; 16.3 ± 0.36 in experiment [8]; 14.4 in [9]; 3.11 ± 4.4 in experiment [19]; 8.17 in experiment [20]; 6.13 in [21]. Also, the drug sensitivity score was found to be 7.1 in experiment [22], 7.09 in [23] and 4.79 in [24]. The “% inhibition” value in [10] was found to be 97.2 ± 1.9%; in [11] it was 99%; in experiment [12], 96.1%; in experiment [13] it was 100%; in [14], 97.1%; in [15] it was 95.8%. The “% inhibition” value in experiment [16] was 96.5%; in [17], 95.2 ± 0.48%; in [18], 99.4%.
As for `Cc1cccc(-c2nn3c(c2-c2ccnc4ccc(C(N)=O)cc24)CCC3)n1` [Galunisertib] (max concentration tested 1000 nM), the drug sensitivity score in experiment [1] was determined as 0; in experiment [2], 0; in [3], 0.276; in [4] it was 0; in experiment [5], 0; in experiment [6], 0. For the same compound, the drug sensitivity score in [7] was 0; in [8], 0.00835 ± 0.012; in experiment [9], 0; in experiment [19], 0.0896 ± 0.13; in experiment [20] it was 0; in experiment [21], 0. Moreover, the drug sensitivity score in [22], in experiment [23] and in experiment [24] was 0 throughout. Moreover, the “% inhibition” value was 9.64 ± 5.1% in experiment [10]; -22% in experiment [11]; 12.7% in [12]; -12.1% in experiment [13]; -1.47% in experiment [14]; 6.58% in experiment [15]. Further, the “% inhibition” value in experiment [16] turned out to be 10.8%; in experiment [17] it was 5.62 ± 8.5%; in [18] it was 3.21%.
`Cc1cc(Nc2cc(CN3CCOCC3)c3nc(C)c(Cc4ccc(Cl)cc4F)n3n2)n[nH]1` [Gandotinib] (max concentration tested 10000 nM): the drug sensitivity score in experiment [1] was 10.4 ± 1.9; in experiment [2] it was 9.06; in experiment [3] it was 8.72; in experiment [4], 7.71; in experiment [5], 8.52; in experiment [6] it was 10.2. Moreover, the drug sensitivity score came to 10.9 in experiment [7]; 11.7 ± 2.7 in experiment [8]; 7.29 in experiment [9]; 7.03 ± 1.3 in experiment [19]; 3.96 in [20]; 5.3 in [21]. Also, the drug sensitivity score in [22] was 8.02; in [23] it was 7.38; in experiment [24], 0.55. For the same compound, the “% inhibition” value in experiment [10] turned out to be 101.6 ± 0.37%; in [11], 96.6%; in experiment [12], 68.9%; in [13] it was 70.5%; in experiment [14] it was 97.2%; in [15], 103%. Further, the “% inhibition” value was 103% in [16], 96.5 ± 2.7% in experiment [17] and 68% in experiment [18].
